Patent US20240139280A1, “USE OF HIF-1-ALPHA INHIBITORS IN CANCER IMMUNOTHERAPY” (ONCOC4, INC., priority 2021, published 2024)

Key:
4T1 tumor = 4T1 tumor growth in mice; assay type: in vivo; details: for 4T1 tumor growth: echinomycin 0.15 mg/kg, vs vehicle
Method: FIGS. 3A-D show the therapeutic effects of echinomycin on tumor growth in immunodeficient and immunocompetent mice. FIG. 3A. Experimental design. Three murine tumor lines were tested: 4T1, E0771, or MC38. For each, immunodeficient and immunocompetent mice were inoculated (day 0), and treatment was initiated with control liposomes (vehicle) or echinomycin liposomes (LEM) on day 6, indicated by arrows in FIGS. 3B-3D. The kinetics of tumor growth were compared to deduce the role of adaptive immunity in the therapeutic effects of echinomycin. FIG. 3B. 4T1 cells (1×10^6) were transplanted into mammary fat pad of NSG and BALB/c mice, which received vehicle or echinomycin (0.15 mg/kg) (arrows). Mean tumor volumes±SEM are shown for one of two independent experiments (n=10/group). FIG. 3C. Kinetics of E0771 tumor growth. E0771 cells (0.7×10^6) were transplanted into mammary fat pad of NSG and C57BL/6 mice, which received vehicle or echinomycin (0.25 mg/kg) (arrows). Mean tumor volumes±SEM are shown for one of two independent experiments (n=5/group). FIG. 3D. Kinetics of MC38 tumor growth. MC38 cells (1×10^6) were transplanted subcutaneously into NSG and C57BL/6 mice, which received vehicle or echinomycin (0.15 mg/kg) (blue arrows). Mean tumor volumes±SEM are shown for one of two independent experiments (n=5/group).
FIGS. 5A-D show at echinomycin potentiates the therapeutic effect of anti-CTLA-4 antibody. FIG. 5A. Experimental design. In 4T1, E0771, or MC38 syngeneic tumor models, the effects of echinomycin on tumor growth were tested in combination with anti-CTLA-4 therapy (9D9). Tumor growth kinetics in mice receiving vehicle, echinomycin, and anti-CTLA-4 (9D9) monotherapies, or anti-CTLA-4+anti-PD-1 (9D9+RMP1-14) are shown. Starting on day 6 after tumor cell inoculation, mice received vehicle or echinomycin and/or various mAbs. The mean tumor volumes±SEM are shown for each group. […]
Tumor Models The details of each experiment are specified in the figure legends. […] Tumor volumes were calculated and reported based on the formula […], where a is the longer diameter, and b is the shorter diameter. […]

[1] = tested on: PD-L1 expression in E0771 cells; assay type: cell-based, murine
[2] = tested on: irAE target organs (liver, kidney), spleen; experiment: PD-L1 expression and T cell infiltration in normal tissues (liver, kidney, spleen) of E0771 tumor-bearing mice; assay type: in vivo, C57BL/6 mice
Method: E0771 cells (0.5×10^6) were orthotopically transplanted into C57BL/6 mice (day 0), which were divided into 6 treatment groups: vehicle, echinomycin (LEM), anti-CTLA-4 (9D9), 9D9+echinomycin, 9D9+echinomycin+XMG1.2 (an anti-IFNγ antibody), or 9D9+RMP1-14. Echinomycin (0.25 mg/kg) or mAbs (0.2 mg/mouse/injection) were given on days 6, 8, 10, and 12. On day 14, the mice were euthanized, perfused, and the spleens were dissociated and analyzed by flow cytometry, or stimulated for 4 hours with PMA+ionomycin+GolgiStop prior to intracellular staining for IFNγ. The liver and kidney were processed for immunofluorescence analysis for PD-L1. FIG. 7A. PD-L1 expression in the tumor-bearing mice treated with different therapies. Representative immunofluorescence images shown for kidney (upper) and liver tissues (lower) of mice from indicated treatment groups stained by anti-PD-L1 and DAPI. FIGS. 7B-D. T cell infiltration in the liver and kidney of tumor-bearing mice. Representative immunofluorescence images from mice in the indicated treatment groups after staining with anti-CD3 and DAPI are shown in FIG. 7B for kidney (upper panel) and liver tissues (lower panel). T cell infiltration scores in the kidney (FIG. 7C) and liver (FIG. 7D) are shown as mean±SEM infiltration scores for the kidney (FIG. 7C) and liver tissues (FIG. 7D). T cell infiltration scoring range: 0, normal/none; 1, minimal; 2, mild; 3, moderate; 4, severe. FIG. 7E. Frequency of splenic Tc1 cells among CD8^+ T cells (gated on Singlets/Live_CD45^+/CD3^+/CD8^+CD4^−), expressed as the mean±SEM. FIG. 7F. Frequencies of splenic Th1 cells among CD4^+ T cells (gated on Singlets/Live_CD45^+/CD3^+/CD8^−CD4^+), expressed as the mean±SEM. FIG. 7G. Frequency of splenic T cells (gated on Singlets/Live_CD45^+/CD3^+/CD8^+CD4^−) among total hematopoietic cells (gated on Singlets/Live_CD45^+). Representative data are shown for one of at least two independent experiments. FIG. 7H. CD3 and cleaved-caspase 3 staining in kidney and liver. Representative immunofluorescence images shown for kidney (upper) and liver tissues (lower) of mice that received 9D9 or 9D9+LEM. Caspase 3 positive cells are indicated with arrows. All data is representative of at least two independent experiments. In FIGS. 7C-G, data are presented as the mean±SEM with each dot representing an individual mouse, analyzed by one-way ANOVA with Sidak's posttest.

In the case of `CSC1SC[C@H]2C(=O)N(C)[C@@H](C(C)C)C(=O)OC[C@@H](NC(=O)c3cnc4ccccc4n3)C(=O)N[C@@H](C)C(=O)N(C)[C@@H]1C(=O)N(C)[C@@H](C(C)C)C(=O)OC[C@@H](NC(=O)c1cnc3ccccc3n1)C(=O)N[C@@H](C)C(=O)N2C` (stereo in doubt) [echinomycin, N,N′-(2,4,12,15,17,25-hexamethyl-11,24-bis(1-methylethyl)-27-(methylthio)-3,6,10,13,16,19,23,26-octaoxo-9,22-dioxa-28-thia-2,5,12,15,18,25-hexaazabicyclo(12.12.3)nonacosane-7,20-diyl)bis(2-quinoxalinecarboxamide)], the “4T1 growth inhibition, immunocompetent vs immunodeficient mice” value (4T1 tumor; BALB/c vs NSG) is reported as “more significantly inhibited in immunocompetent mice than in immunodeficient mice”, the 4T1 tumor growth (4T1 tumor; immunocompetent BALB/c) is reported as “significantly inhibited 4T1 tumor growth” and the 4T1 tumor growth (4T1 tumor; immunodeficient NSG) is reported as “significantly inhibited 4T1 tumor growth”. The “PD-L1 expression in sh-Hif1α E0771 cells” value [1] was “abrogated the ability for echinomycin to decrease PD-L1 protein”, the PD-L1 protein ([1]; E0771 cells, normoxia, echinomycin 0.45 nM, 48 hours) was “reduced PD-L1 protein” and the “PD-L1 expression in sh-Scr E0771 cells” value ([1]; scrambled shRNA, echinomycin 1.35 nM) was “inhibitory effect of echinomycin on PD-L1 expression was preserved”. The “T cell infiltration in liver and kidney” value ([2]; E0771 tumor-bearing C57BL/6, anti-CD3 immunofluorescence) was “did not stimulate increased infiltration”, the “PD-L1 expression in liver and kidney (immunofluorescence)” value ([2]; E0771 tumor-bearing C57BL/6, echinomycin 0.25 mg/kg, mAbs 0.2 mg/mouse/injection) was “also induced PD-L1” and the “PD-L1 expression in normal tissues including liver, kidney, salivary gland and colon” value ([2]; immunocompetent mice) was “induced PD-L1 expression”. The “PD-L1 induction in the liver in mice with conditional knockout of Hif1α in T cells” value ([2]; mouse, in vivo) was “preserved regardless of the mouse genotype”.
